Results on 5 substances are retold here after patent publication US20230263822A1, “MODULATION OF FACTOR 11 EXPRESSION” (Ionis Pharmaceuticals, Inc., priority 2008, published 2023).

The subject of the series is blood coagulation. Description: PT and aPTT assay in cynomolgus monkeys (Example 46). The format is in vivo. Conditions: platelet poor plasma, relative to PBS group. As for the experimental part: Groups, each consisting of two male and two female monkeys, were injected subcutaneously with 25 mg/kg of ISIS 416850, ISIS 449709, ISIS 445522, ISIS 449710, ISIS 449707, ISIS 449711, ISIS 449708, 416858, and ISIS 445531. Antisense oligonucleotide was administered to the monkeys at 25 mg/kg three times per week for week 1 and 25 mg/kg twice per week for weeks 2 to 8. A control group, consisting of two male and two female monkeys was injected subcutaneously with PBS according to the same dosing regimen. Body weights were taken 14 days and 7 days before the start of treatment and were then measured weekly throughout the treatment period. Blood samples were collected 14 days and 5 days before the start of treatment and subsequently several times during the dosing regimen for PT and aPTT measurements, and measurement of various hematologic factors. On day 55, the monkeys were euthanized by exsanguination while under deep anesthesia, and organs harvested for further analysis.
PT and aPTT were measured using platelet poor plasma (PPP) from […] treated with ISIS oligonucleotides. PT and aPTT values are provided in Tables 148 and 149 and are reported as International Normalized Ratio (INR) values. INR values for PT and aPTT were determined by dividing the PT or aPTT value for each experimental group by the PT or aPTT for the PBS treated group. This ratio was then raised to the power of the International Sensitivity Index (ISI) of the tissue factor used. […] Therefore, antisense reduction of Factor 11 with these ISIS oligonucleotides is useful for inhibiting the formation of a thrombus or clot in response to an abnormal vessel wall, but not in response to tissue injury.

Strand notation (5' to 3'): a small letter for the sugar, then the base; units joined by * are phosphorothioate-linked, units joined directly phosphodiester-linked; [ ] holds rarer units or linkages, { } end groups; capitals alone tell only the bases. e = 2'-O-(2-methoxyethyl) (MOE); [5mC] = 5-methylcytosine; d = 2'-deoxy (DNA)

Regarding “ISIS 449708: 3-8-3, 4-8-4, 2-10-2, 3-10-3 or 4-10-4 MOE microwalk gapmer (Table 46) (antisense eA*e[5mC]*eA*dG*dT*dT*dT*d[5mC]*dT*dG*dG*e[5mC]*eA*eG)”, the “PT ratio (INR)” value is 0.98 (Day 10); 1.00 (Day 17); 0.95 (Day 24); 1.06 (Day 31); 0.99 (Day 38); 0.99 (Day 45). Further, the “PT ratio (INR)” value by setting is: (Day 52) 0.99; (Day 55) 1.04; (Day −5) 0.95; (Day −14) 1.03. Further, the “aPTT ratio relative to PBS group” value came out at 1.06 (Day 10); 1.05 (Day 17); 1.01 (Day 24); 1.09 (Day 31); 1.06 (Day 38); 1.06 (Day 45). Also, the “aPTT ratio relative to PBS group” value is recorded as 1.08 (Day 52), 1.11 (Day 55), 1.01 (Day −5) and 1.07 (Day −14).
As for “ISIS 449707: 3-8-3, 4-8-4, 2-10-2, 3-10-3 or 4-10-4 MOE microwalk gapmer (Table 46) (antisense e[5mC]*eA*e[5mC]*eA*dG*dT*dT*dT*d[5mC]*dT*dG*dG*e[5mC]*eA*eG*eG)”, the “PT ratio (INR)” value is given as 0.95 (Day 10); 0.97 (Day 17); 0.95 (Day 24); 0.96 (Day 31); 1.00 (Day 38); 0.96 (Day 45). Also, the “PT ratio (INR)” value was 0.96 (Day 52), 1.00 (Day 55), 0.94 (Day −5) and 1.01 (Day −14). The “aPTT ratio relative to PBS group” value reads like this: (Day 10) 0.92; (Day 17) 0.94; (Day 24) 0.93; (Day 31) 0.95; (Day 38) 0.99; (Day 45) 1.00. For the same substance, the “aPTT ratio relative to PBS group” value came to 0.99 (Day 52), 1.04 (Day 55), 0.87 (Day −5) and 0.90 (Day −14).
Regarding “ISIS 449710: 3-8-3, 4-8-4, 2-10-2, 3-10-3 or 4-10-4 MOE microwalk gapmer (Table 46) (antisense e[5mC]*eA*e[5mC]*dA*dG*dT*dT*dT*d[5mC]*dT*dG*dG*d[5mC]*eA*eG*eG)”, the “PT ratio (INR)” value by setting is: (Day 10) 0.98; (Day 17) 1.00; (Day 24) 0.97; (Day 31) 0.98; (Day 38) 0.99; (Day 45) 0.97. Moreover, the “PT ratio (INR)” value runs as follows: (Day 52) 0.98; (Day 55) 1.06; (Day −5) 0.96; (Day −14) 1.03. In addition, the “aPTT ratio relative to PBS group” value stood at 1.00 (Day 10); 0.97 (Day 17); 1.00 (Day 24); 1.04 (Day 31); 1.02 (Day 38); 1.06 (Day 45). The “aPTT ratio relative to PBS group” value is, setting by setting: (Day 52) 1.03; (Day 55) 1.07; (Day −5) 0.98; (Day −14) 1.07.
As to “ISIS 445531: 5-8-5 or 6-8-6 MOE microwalk gapmer (Table 44) (antisense eG*eG*e[5mC]*eA*eT*dT*dG*dG*dT*dG*d[5mC]*dA*d[5mC]*eA*eG*eT*eT*eT)”, the “PT ratio (INR)” value runs as follows: (Day 10) 1.00; (Day 17) 1.06; (Day 24) 1.02; (Day 31) 1.04; (Day 38) 1.03; (Day 45) 1.01. Moreover, the “PT ratio (INR)” value (Day 52) was 1.04, the “PT ratio (INR)” value (Day 55) is listed as 1.06, the “PT ratio (INR)” value (Day −5) worked out at 1.00 and the “PT ratio (INR)” value (Day −14) came to 1.06. The “aPTT ratio relative to PBS group” value reads like this: (Day 10) 0.95; (Day 17) 1.05; (Day 24) 1.00; (Day 31) 1.07; (Day 38) 1.06; (Day 45) 1.13. Also, the “aPTT ratio relative to PBS group” value is recorded as 1.15 (Day 52), 1.19 (Day 55), 0.89 (Day −5) and 1.00 (Day −14).
Take “ISIS 449711: 3-8-3, 4-8-4, 2-10-2, 3-10-3 or 4-10-4 MOE microwalk gapmer (Table 46) (antisense eA*e[5mC]*dA*dG*dT*dT*dT*d[5mC]*dT*dG*dG*d[5mC]*eA*eG)”: the “PT ratio (INR)” value turned out to be 0.94 (Day 10); 0.95 (Day 17); 0.94 (Day 24); 0.98 (Day 31); 1.02 (Day 38); 1.01 (Day 45). Moreover, the “PT ratio (INR)” value (Day 52) is given as 1.00, the “PT ratio (INR)” value (Day 55) was found to be 1.07, the “PT ratio (INR)” value (Day −5) was found to be 0.95 and the “PT ratio (INR)” value (Day −14) was found to be 1.00. Also, the “aPTT ratio relative to PBS group” value is 0.92 (Day 10); 0.90 (Day 17); 0.92 (Day 24); 0.89 (Day 31); 0.93 (Day 38); 0.94 (Day 45). Further, the “aPTT ratio relative to PBS group” value (Day 52) is listed as 0.92, the “aPTT ratio relative to PBS group” value (Day 55) came to 0.96, the “aPTT ratio relative to PBS group” value (Day −5) was 0.96 and the “aPTT ratio relative to PBS group” value (Day −14) is on record as 0.94.
